From PMC5861220, “The Cytochrome P450-Mediated Metabolism Alternation of Four Effective Lignans From Schisandra chinensis in Carbon Tetrachloride-Intoxicated Rats and Patients With Advanced Hepatocellular Carcinoma” (Frontiers in Pharmacology, 2018)
Where two headings read alike, the source gives them in different places.

How the values were obtained:
rat liver = test: In situ hepatic perfusion of four lignans; format: in vivo; conditions: hepatic perfusion 60 min, 10 μM, n = 3
Description: (§1) In situ liver perfusion was performed similarly as the method described previously (Uraki et al., [2016]). […] The perfusate consisted of Krebs–Hensleit buffer (pH 7.4) containing sodium taurocholate (4.75 mg/L), 1% bovine serum albumin, and glucose (1.2 g/L) was oxygenated using carbogen, 95% O2/5% CO2. The perfusate at 37°C was infused into the portal vein at a flow rate of 30 mL/min in a recirculatory manner. After 10-min equilibration, four schisandra lignans were added to the reservoir (final concentration of 10 μM). Perfusate (0.5 mL) and bile samples were collected at 0, 10, 20, 30, 40, 50, and 60 min after the addition of lignans. The same volume of blank perfusion buffer was immediately added to the reservoir after collection of the perfusate samples. After hepatic perfusion, rat was sacrificed and liver was removed, blotted dry, and weighed.

[1] = In situ hepatic perfusion of four lignans; format: in vivo, rat; conditions: Sprague-Dawley, rat, perfusate, perfusate AUC(0−1h), n = 3
Description: as §1

[2] = test system: rat intestine (jejunum segment); test: In situ intestinal perfusion of four lignans; format: in vivo; conditions: for Perfusate (Percent of the initial dose) / Plasma (Percent of the initial dose) / Intestine (Percent of the initial dose) / Pblood / Plumen: 50 μM, n = 3; for Perfusate (Percent of the initial dose): intestinal perfusion 60 min; for Plasma (Percent of the initial dose) / Intestine (Percent of the initial dose): intestinal perfusion; for Plasma (Percent of the initial dose): mesenteric vein blood
Description: The surgical procedures of intestinal perfusion were conducted according to those published reports (Savina et al., [1981]). Hank's balanced salt solution (HBSS, pH 7.4) with four schisandra lignans (50 μM) at 37°C was infused into the jejunum segment at rate of 0.3 mL/min. Phenol Red (50 μM) was added to serve as a nonabsorbable marker for measuring water flux. Blood samples from mesenteric vein and perfusate were collected at 5-min interval. The plasma separated by centrifugation and perfusate was stored at −20°C until HPLC-MS analysis.
The permeability of four lignans across the rat intestine was calculated based on the disappearance of parent drug from the lumen (Plumen) as well as the appearance of the drug in blood (Pblood) using the following equations (Singhal et al., [1998]):
(1) Plumen = −Q/2πrlLnCout/Cin
(1) Pblood = ΔMB/Δt/2πrl{C}
where r is the radius of the perfused intestinal lumen; l is the length of the segment; Q is the flow rate of perfusate; Cin is the concentration of drug at the start of perfusion; and Cout is the steady-state concentration of drug exiting the lumen. ΔMB/Δt is the rate of drug appearance in mesenteric blood; and {C} is the logarithmic mean concentration of drug in the lumen.

[3] = Pharmacokinetics of four lignans in rats after oral SC alcoholic extract; format: in vivo, rat; conditions: for AUC(0-t) / Cmax / half-life / CL/F / MRT last / Tmax: Sprague-Dawley, rat, plasma, po, 1.5 g/kg/day, oral SC alcoholic extract 1.5 g/kg/day for 4 days, n = 5; for CL/F: read-out: CLz/F (converted); for MRT last: read-out: MRT(0−t); for Tmax: read-out: Tmax
Description: The pharmacokinetic profiles of four lignans were studied in ALI rat after multiple oral administrations of SC alcoholic extract at dose of 1.5 g/kg/day. After the ALI rat was established, SC alcoholic extract suspended in 0.5% sodium carboxymethyl cellulose was given to ALI rats and the control via oral gavage once a day for 4 consecutive days. Before the last dosing, rats were fasted for 12 h while water was taken freely. Blood samples were collected at 0, 0.25, 0.5, 1, 2, 3, 4, 6, 8, 12, 24, 36, and 48 h after the last dosing. A cannula was surgically placed into the jugular vein for collection of blood samples (about 0.1 mL) and blood loss compensation using sterile isotonic saline in the pharmacokinetic study. Plasma was separated by centrifugation and stored at −20°C until analysis. Plasma concentrations of the four lignans were quantified using HPLC-MS analysis developed according to the reported method (Wang et al., [2008]).
Data fitting and pharmacokinetic parameter calculations were carried out using the Winnolin software. Non-compartmental analysis was used to calculate the pharmacokinetic parameters. Parameters, such as AUC and MRT, were calculated using statistical moment method.

[4] = Identification of CYP450 isozymes in lignan metabolism, human liver microsomes (no inhibitor); format: in vitro ADME; conditions: human, 5 μM, pH 7.4
Description: (§2) The CYP450s involved in the metabolism of schisandrin, schisantherin A, deoxyshisandrin and γ-schisandrin in rat or human liver microsomes were confirmed by comparison of the metabolism ratio before and after the addition of selective inhibitors to CYP450 isozymes. […] The supernate was injected to HPLC-MS for analysis of the four lignans.

[5] = Transport across Caco-2 cell monolayer; format: in vitro ADME; conditions: human, Caco-2
Description: Caco-2 cell (passage 38) was used in the transport experiments. Cells were seeded on polycarbonate filters (12 mm diameter, pore size […]) at 1 × 10^5/cm^2. The cell monolayer was formed 21 days post seeding when the transepithelial electrical resistance (TEER) was above 1,000 Ω• cm^2. Three concentration levels (5, 10, and 50 μM) were set for the four schisandra lignans in the study. After preincubation for 1 h at 37°C, the solution of the four lignans was respectively added to the apical (0.4 mL) or basolateral (0.6 mL) chamber for absorptive (AP → BL) and secretive (BL → AP) permeability test. At the specified timepoints (0.5, 1, 1.5 and 2 h), 50 μL samples (n = 3) were withdrawn from receiver chamber, and meanwhile, 50 μL fresh buffer was added. The four lignans were determined by HPLC-MS method.
The efflux rate (ER) was calculated by the formula ER = Papp (BL → AP)/Papp(AP → BL).

[6] = Identification of CYP450 isozymes in lignan metabolism, rat liver microsomes (no inhibitor / overall); format: in vitro ADME; conditions: rat, 5 μM, pH 7.4
Description: as §2

## COc1cc2c(c(OC)c1OC)-c1c(cc3c(c1OC)OCO3)C[C@H](C)[C@H](C)C2 [γ-Schisandrin, γ-schisandrin]
Rat liver; CCl4-intoxicated rats
  Total amount of analyte in bile: 1.19 ± 0.28 µg
  Total amount of analyte in liver: 14.25 ± 1.36 µg
Rat liver; Control rats
  Total amount of analyte in bile: 1.37 ± 0.14 µg
  Total amount of analyte in liver: 11.10 ± 1.31 µg
[1]; pH 7.4, CCl4-intoxicated rats
  AUC at 10 μM: 3740 ± 70 ng·h/mL
[1]; pH 7.4, Control rats
  AUC at 10 μM: 3190 ± 70 ng·h/mL
[2]; CCl4-intoxicated rats
  Perfusate (Percent of the initial dose): 91.92 ± 1.69% of the initial dose
  Plasma (Percent of the initial dose): 0.82 ± 0.06% of the initial dose
  Intestine (Percent of the initial dose): 1.87 ± 0.20% of the initial dose
  Pblood: 0.066 ± 0.018 × 10^−4 cm/s
  Plumen: 2.540 ± 0.423 × 10^−4 cm/s
[2]; Control rats
  Perfusate (Percent of the initial dose): 92.57 ± 1.67% of the initial dose
  Plasma (Percent of the initial dose): 0.84 ± 0.09% of the initial dose
  Intestine (Percent of the initial dose): 1.66 ± 0.27% of the initial dose
  Pblood: 0.052 ± 0.009 × 10^−4 cm/s
  Plumen: 2.543 ± 0.174 × 10^−4 cm/s
[2]; intestinal autoperfusion (60 min), CCl4-treated rats vs control
  Increase of remaining amount in perfusate: not changed
[3]; CCl4 intoxicated rats vs control rats
  Reduction of systemic clearance (CLz/F): ~54%
[3]; CCl4-intoxicated rats
  AUC(0-t): 11600 ± 3090 ng·h/mL
  Cmax: 628 ± 164 ng/mL
  half-life: 14.5 ± 5.05 h
  CL/F: 25.2 mL/min/kg
  MRT last: 15.9 ± 1.24 h
  Tmax: 4.2 ± 1.79 h
[3]; Control (normal) rats
  AUC(0-t): 5220 ± 1430 ng·h/mL
  Cmax: 182 ± 103 ng/mL
  half-life: 15.4 ± 2.52 h
  CL/F: 54.3 mL/min/kg
  MRT last: 16.5 ± 0.94 h
  Tmax: 6.4 ± 0.89 h
[4]
  Metabolism rate: 194.1 ± 12.9 nmol/min/mg
[5]; 5 μM
  Papp A→B at 2 h, 5 μM: 1.17 ± 0.16 ×10⁻⁶ cm/s
  Papp B→A at 2 h, 5 μM: 1.32 ± 0.14 ×10⁻⁶ cm/s
[5]; 5 μM, ER = Papp (BL → AP)/Papp(AP → BL)
  efflux ratio at 2 h, 5 μM: 1.13
[5]; 10 μM
  Papp A→B at 2 h, 10 μM: 1.18 ± 0.09 ×10⁻⁶ cm/s
  Papp B→A at 2 h, 10 μM: 1.34 ± 0.11 ×10⁻⁶ cm/s
[5]; 10 μM, ER = Papp (BL → AP)/Papp(AP → BL)
  efflux ratio at 2 h, 10 μM: 1.14
[5]; 50 μM
  Papp A→B at 2 h, 50 μM: 1.22 ± 0.16 ×10⁻⁶ cm/s
  Papp B→A at 2 h, 50 μM: 1.32 ± 0.2 ×10⁻⁶ cm/s
[5]; 50 μM, ER = Papp (BL → AP)/Papp(AP → BL)
  efflux ratio at 2 h, 50 μM: 1.08
[6]
  Metabolism rate: 79.6 ± 6.5 nmol/min/mg
